Test results from BindingDB's records for doi:10.1021/jm00047a011 (Purdue University, 2021).
pIC50: −log10 of the molar value. Values belong to the molecule of their own block, whether it stands above or below them.

Legend:
[1] = biological target: T1, Nicotinamide N-methyltransferase (Homo sapiens, UniProt P40261); experiment: Binding affinity to recombinant human NNMT SAM binding site expressed in Escherichia coli BL21 (DE3) using nicotinamide as substrate and AdoMet as cofactor preincubated for 10 mins followed by substrate addition and measured after 10 mins by UHP-HILIC-MS analysis
T1 sequence (P40261 whole entry): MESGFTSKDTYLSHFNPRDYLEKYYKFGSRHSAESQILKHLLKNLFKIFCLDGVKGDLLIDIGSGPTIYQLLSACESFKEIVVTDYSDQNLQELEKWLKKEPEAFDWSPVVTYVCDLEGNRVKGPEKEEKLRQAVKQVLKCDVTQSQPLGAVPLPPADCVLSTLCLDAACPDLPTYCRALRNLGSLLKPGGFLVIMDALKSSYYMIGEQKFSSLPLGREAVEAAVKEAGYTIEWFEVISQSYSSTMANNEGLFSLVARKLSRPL

[2] = biological target: T1, Nicotinamide N-methyltransferase; experiment: Inhibition of NNMT (unknown origin) assessed as formation of MNA using nicotinamide as substrate and SAM as cofactor by fluorescence based assay
[3] = biological target: T1, Nicotinamide N-methyltransferase; experiment: Inhibition of endogenous human NNMT overexpressed in human U2OS cells assessed incubated for 24 hrs by LC-MS/MS analysis
[4] = biological target: T2, Nicotinamide N-methyltransferase (Mus musculus, UniProt O55239); experiment: Inhibition of endogenous mouse NNMT overexpressed in murine 3T3-L1 cells assessed incubated for 24 hrs by LC-MS/MS analysis
T2 sequence (O55239 whole entry): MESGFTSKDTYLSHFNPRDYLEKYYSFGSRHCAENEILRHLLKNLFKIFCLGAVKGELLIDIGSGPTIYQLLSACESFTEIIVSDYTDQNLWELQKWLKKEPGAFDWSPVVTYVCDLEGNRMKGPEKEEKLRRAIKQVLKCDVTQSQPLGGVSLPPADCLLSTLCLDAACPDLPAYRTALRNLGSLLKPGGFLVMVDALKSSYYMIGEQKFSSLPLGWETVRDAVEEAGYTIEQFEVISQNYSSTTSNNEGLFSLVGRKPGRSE

pIC50 [1]: 5.41
Structure (SMILES): Nc1ncnc2c1ncn2[C@@H]1O[C@H](C[C@@H](N)CC[C@H](N)C(=O)O)[C@@H](O)[C@H]1O [SINEFUNGIN]

pIC50 [1]: 4.58
Structure (SMILES): Nc1ncnc2c1ncn2[C@@H]1O[C@H](CSCC[C@H](N)C(=O)O)[C@@H](O)[C@H]1O [AdoHcy]

Structure (SMILES): C=C(C)[C@@]12O[C@@]3(/C=C/C=C/CCCCC)O[C@@H]1[C@@H]1[C@@H]4O[C@]4(CO)[C@@H](O)[C@]4(O)C(=O)C(C)=C[C@H]4[C@@]1(O3)[C@H](C)[C@H]2OC(C)=O [YUANHUADINE]
pIC50 [2]: 5.40

pIC50 [3]: 5.80
pIC50 [4]: 5.20
Structure (SMILES): COc1ccc(C(N)=O)cn1
